Measured values as given in the supplement of paper PMC10307832.

How the values were obtained:
Assay in all cases: relative viability (nuclei count vs DMSO), 5 days (fraction); higher = more cells survive
Sorafenib + Luminespib = compound: CNC(=O)c1cc(Oc2ccc(NC(=O)Nc3ccc(Cl)c(C(F)(F)F)c3)cc2)ccn1 [Sorafenib] + CCNC(=O)c1noc(-c2cc(C(C)C)c(O)cc2O)c1-c1ccc(CN2CCOCC2)cc1 [Luminespib] (partner 0.01 µM)
In short: (§1)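 Lung cancer cell lines, seeded in 1536-well plates, were treated the following day by pin tool with a single drug or with five library-drug doses (not always all listed) in √10 steps on top of a fixed anchor-drug dose. Cells were fixed and nuclei stained in one step after 5 days, and nuclei were counted. Relative viability is the nuclei count for treated wells divided by that for vehicle wells, reported as medians of duplicate plates.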

Sorafenib + OSI-027 = compound: CNC(=O)c1cc(Oc2ccc(NC(=O)Nc3ccc(Cl)c(C(F)(F)F)c3)cc2)ccn1 [Sorafenib] + COc1cccc2cc(-c3nc([C@H]4CC[C@H](C(=O)O)CC4)n4ncnc(N)c34)[nH]c12 [OSI-027] (partner 0.5 µM)
In short: as §1

Sorafenib + Pictilisib = compound: CNC(=O)c1cc(Oc2ccc(NC(=O)Nc3ccc(Cl)c(C(F)(F)F)c3)cc2)ccn1 [Sorafenib] + CS(=O)(=O)N1CCN(Cc2cc3nc(-c4cccc5[nH]ncc45)nc(N4CCOCC4)c3s2)CC1 [Pictilisib] (partner 1 µM)
In short: as §1

Sorafenib + Phenformin = compound: CNC(=O)c1cc(Oc2ccc(NC(=O)Nc3ccc(Cl)c(C(F)(F)F)c3)cc2)ccn1 [Sorafenib] + N=C(N)NC(=N)NCCc1ccccc1 [Phenformin] (partner 250 µM)
In short: as §1

Sorafenib + Olaparib = compound: CNC(=O)c1cc(Oc2ccc(NC(=O)Nc3ccc(Cl)c(C(F)(F)F)c3)cc2)ccn1 [Sorafenib] + O=C(c1cc(Cc2n[nH]c(=O)c3ccccc23)ccc1F)N1CCN(C(=O)C2CC2)CC1 [Olaparib] (partner 8 µM)
In short: as §1

| Cell Line | relative viability (Sorafenib + Luminespib; first compound 0.08 µM) | relative viability (Sorafenib + Luminespib; first compound 0.253 µM) | relative viability (Sorafenib + Luminespib; first compound 2.53 µM) | relative viability (Sorafenib + Luminespib; first compound 8 µM) | relative viability (Sorafenib + OSI-027; first compound 0.08 µM) | relative viability (Sorafenib + OSI-027; first compound 0.253 µM) | relative viability (Sorafenib + OSI-027; first compound 2.53 µM) | relative viability (Sorafenib + OSI-027; first compound 8 µM) | relative viability (Sorafenib + Pictilisib; first compound 0.08 µM) | relative viability (Sorafenib + Pictilisib; first compound 0.253 µM) | relative viability (Sorafenib + Pictilisib; first compound 2.53 µM) | relative viability (Sorafenib + Pictilisib; first compound 8 µM) | relative viability (Sorafenib + Phenformin; first compound 0.08 µM) | relative viability (Sorafenib + Phenformin; first compound 0.253 µM) | relative viability (Sorafenib + Phenformin; first compound 2.53 µM) | relative viability (Sorafenib + Phenformin; first compound 8 µM) | relative viability (Sorafenib + Olaparib; first compound 0.08 µM) | relative viability (Sorafenib + Olaparib; first compound 0.253 µM) | relative viability (Sorafenib + Olaparib; first compound 2.53 µM) | relative viability (Sorafenib + Olaparib; first compound 8 µM) |
| --- | --- | --- | --- | --- | --- | --- | --- | --- | --- | --- | --- | --- | --- | --- | --- | --- | --- | --- | --- | --- |
| HCC-827 | 0.709 | 0.525 | 0.59 | 0.638 | 0.956 | 0.715 | 0.723 | 0.723 | 1.19 | 0.897 | 0.861 | 0.727 | 0.447 | 0.399 | 0.447 | 0.424 | 0.621 | 0.623 | 0.572 | 0.464 |
| HOP-62 | 0.981 | 0.865 | 0.705 | 0.886 | 0.848 | 0.631 | 0.759 | 0.657 | 0.685 | 0.632 | 0.619 | 0.68 | 0.682 | 0.558 | 0.54 | 0.369 | 0.28 | 0.389 | 0.405 | 0.249 |
| LC-2-ad | 1.01 | 1.04 | 1.06 | 0.879 | 0.889 | – | 0.9 | 0.573 | 0.432 | 0.369 | 0.32 | 0.193 | 0.595 | 0.495 | 0.613 | 0.453 | 0.738 | 0.768 | 0.751 | 0.655 |
| LCLC-97TM1 | 0.97 | 0.743 | 0.716 | 0.56 | 0.552 | 0.515 | 0.336 | 0.272 | 0.152 | 0.207 | 0.211 | 0.16 | 0.413 | 0.377 | 0.325 | 0.356 | 0.413 | 0.324 | 0.297 | 0.253 |
| LCLC-103H | 0.964 | 0.939 | 1.03 | 0.837 | 0.556 | 0.425 | 0.528 | 0.469 | 0.689 | 0.581 | 0.698 | 0.758 | 0.401 | 0.309 | 0.336 | 0.344 | 0.796 | 0.734 | 0.831 | 0.832 |
| LK-2 | 0.228 | 0.197 | 0.175 | 0.172 | 0.201 | 0.193 | 0.19 | 0.139 | 0.588 | – | 0.722 | 0.374 | 0.562 | 0.274 | 0.38 | 0.0899 | 0.674 | 0.734 | 0.575 | 0.346 |
| LOU-NH91 | 0.306 | 0.359 | 0.418 | 0.336 | 0.783 | 0.713 | 0.788 | 0.799 | 0.557 | 0.543 | 0.585 | 0.491 | 0.784 | 0.678 | 0.73 | 0.489 | 0.936 | 0.975 | 0.96 | 0.657 |
| LU99A | 0.359 | 0.25 | 0.204 | 0.318 | 0.299 | 0.27 | 0.299 | 0.272 | 0.308 | 0.3 | 0.347 | 0.325 | 0.978 | 0.864 | 0.748 | 0.408 | 0.244 | 0.234 | 0.244 | 0.237 |
| LXF-289 | 0.706 | 0.648 | 0.634 | 0.588 | 0.787 | 0.814 | – | 0.764 | 0.834 | 0.727 | 0.828 | 0.779 | 0.553 | 0.513 | 0.541 | 0.476 | 1.03 | 1.04 | 1.01 | 0.96 |
| NCI-H23 | 0.225 | – | 0.228 | 0.213 | – | 0.501 | 0.488 | 0.398 | 0.474 | 0.445 | 0.39 | 0.362 | 0.829 | – | 0.726 | 0.74 | 0.31 | 0.249 | 0.343 | 0.266 |
| NCI-H322M | 1.03 | 1.03 | 1.24 | 1.06 | 0.615 | 0.48 | 0.542 | 0.587 | – | 0.593 | 0.62 | 0.695 | 0.813 | 0.67 | 0.807 | 0.795 | 0.903 | 0.66 | 0.678 | 0.918 |
| NCI-H358 | 0.242 | 0.285 | 0.295 | 0.239 | – | 0.75 | 0.839 | – | 0.364 | 0.393 | 0.469 | 0.184 | 0.442 | 0.392 | 0.468 | 0.146 | 0.551 | 0.491 | 0.368 | 0.375 |
| NCI-H441 | 0.326 | – | 0.29 | 0.287 | 0.588 | – | 0.423 | 0.297 | 0.524 | 0.476 | 0.409 | 0.445 | 0.976 | – | 0.745 | 0.412 | 0.593 | 0.5 | 0.455 | 0.308 |
| NCI-H522 | 1.28 | 1.19 | 0.929 | 0.992 | 0.649 | 0.631 | 0.672 | 0.552 | – | – | – | – | 0.512 | 0.526 | 0.695 | 0.478 | 0.68 | 0.634 | 0.775 | 0.541 |
| NCI-H1563 | 0.533 | 0.471 | 0.527 | 0.529 | 0.792 | 0.766 | 0.687 | 0.7 | 0.653 | 0.523 | 0.614 | 0.665 | 0.709 | 0.643 | 0.749 | 0.532 | – | – | – | – |
| NCI-H2342 | 0.662 | 0.637 | 0.597 | 0.582 | 0.676 | 0.522 | 0.542 | 0.482 | – | – | – | – | 0.67 | 0.487 | 0.528 | 0.381 | 0.433 | 0.487 | 0.351 | 0.388 |
| SW 900 | 0.147 | 0.16 | 0.171 | 0.165 | 0.842 | 0.427 | 0.579 | 0.49 | – | – | – | – | 0.871 | 0.602 | 0.461 | 0.22 | 0.764 | 0.88 | 0.909 | 0.34 |
